Reference: patent publication US11584763B2, “Chromenopyridine derivatives as phosphatidylinositol phosphate kinase inhibitors” (HIBERCELL, INC., priority 2017, dated 2023)

Key:
Type in all cases: biochemical
PIP4K 2A [1] = target: T1, PIP4K 2A (Homo sapiens, UniProt P48426); experiment: Kinase Assay PIP4K2 A (PIP4KtypeIIA inhibition assay); design: made in house; host or cells: E. coli; details: compounds listed under IC50 bin headings
T1 sequence (P48426 1-406): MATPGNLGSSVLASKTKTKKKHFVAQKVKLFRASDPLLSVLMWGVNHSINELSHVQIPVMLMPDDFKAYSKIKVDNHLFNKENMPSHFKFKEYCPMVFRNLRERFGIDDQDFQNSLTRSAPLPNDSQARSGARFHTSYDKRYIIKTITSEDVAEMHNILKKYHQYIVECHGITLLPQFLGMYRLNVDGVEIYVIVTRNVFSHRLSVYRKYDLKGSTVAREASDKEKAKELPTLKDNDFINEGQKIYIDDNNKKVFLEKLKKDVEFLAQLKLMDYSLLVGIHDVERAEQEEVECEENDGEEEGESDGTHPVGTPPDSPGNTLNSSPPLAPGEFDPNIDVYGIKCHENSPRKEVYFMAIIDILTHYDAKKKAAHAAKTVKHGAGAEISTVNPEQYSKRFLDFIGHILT
Source text: GST tagged PIP4KtypeIIA and B enzymes were overexpressed in E. Coli and purified to >80% homogeneity. Phosphatidyl inositol-5-phosphate (PI5P, Cat. #850152, Avanti Polar Lipids Inc.) was used as the lipid substrate and phosphatidyl ethanolamine (DOPE 18:1, Cat. #850725, Avanti Polar Lipids Inc.) was used as the carrier lipid for assays. Ultrapure ATP and GTP was purchased from Bellbrooke Labs. ADP Glo reagents were obtained from Promega. Transcreener FI reagent was obtained from Bellbrooke labs.
Enzyme preparation: GST-tagged PIP4KtypeIIA (5 uL, 1.43 mg/mL) was diluted (1:10) to 50 uL using HNE buffer. From the 1:10 diluted stock, a 6.4 uL aliquot was diluted further to 5 mL using HNE buffer to yield 5× enzyme stock (2.5 nM).
Lipid Preparation: In a 10 mL pyrex glass vial, 1 ug of PI5P and 1 ug of DOPE were suspended in 2.5 mL of HEPES buffer mix and 2.5 mL of H:E buffer. The contents were mixed and sonicated for 3 min to yield a translucent lipid stock.
Compound Preparation: Compounds were stored as 5 mM stocks in neat DMSO as room temperature in glass vials. 5 mM stocks were diluted to 2 mM and then serially diluted (3×) in neat DMSO in 96 well polypropylene plates. From the serially diluted stocks, 3 uL was delivered into 250 uL of 25% DMSO (in water) to generate 5× compound stocks. Typically, the highest compound conc. was 24 uM.
The assay volume was kept at 25 uL. To each well of the reaction plate, 10 uL of lipid stock (1:1 ratio PI5P:DOPE) was delivered. This was followed by the addition of 5 uL of compound in 25% DMSO. Then, to each well, 5 uL of 2.5 nM (5×) typeIIA enzyme was delivered. The contents were mixed well and incubated for 1 h at 27 C. After 1 h, reaction was initiated by adding 5 uL of 50 uM ATP and the contents were mixed well with a multi-channel pipetteman. The final concentration of the reagents are as follows: 50 mM HEPES, pH 7.3, 10 mM MgCl2, 20 mM NaCl, 0.01% v/v triton-X100, 5% DMSO, 10 uM ATP, 80 uM (2 ug) PI5P, 2 ug DOPE, and 0.5 nM PIP4KIIA. Typically, the highest conc. of compounds was 4.8 uM and the lowest conc. was 0.
After 1 hr, the reaction was quenched by adding 25 uL of ADP Glo reagent. The contents were incubated for 1 hr. Afterwards, 50 uL of kinase detection reagent was delivered. The contents were incubated for another hour. The luminescence was read using Molecular Devices Paradigm plate reader. […] The blanks were averaged and subtracted from all other wells. Using a calibration curve, RLU was converted to uM ADP (product). IC50 was calculated by plotting the residual activity (expressed as % No inhibitor control) vs. log [Inh. conc.]

PIP4K 2A [2] = target: T1, PIP4K 2A; experiment: ADP-glo kinase assay PIP4K 2A; design: 4 nM PIP4K2A (full length protein, SignalChem); purchased SignalChem; details: compounds listed under IC50 bin headings
Outline: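 Inhibition was calculated versus DMSO controls from ADP-Glo luminescence and fitted to IC50 over a 10-point, threefold series. Compound was first pre-incubated 15 min at room temperature with PIP4K2A (full-length; 4 nM in the enzyme/substrate mix) and PI(5)P diC8 (100 μM in that mix). The reaction then ran for 1 h after adding 60 μM ATP solution, in MOPS pH 7.2/MgCl2/Tween buffer.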

PIP4K2B = target: T2, PIP4K2B (Homo sapiens, UniProt P78356); experiment: Trans-FI P kinase assay PIP4K2B (PIP4KtypeIIB inhibition assay); details: compounds listed under IC50 bin headings; 100 uM GTP; read-out: Trans-FI P kinase assays: PIP4K2B IC50
T2 construct: made in house; host or cells: E. coli
T2 sequence (P78356 1-416): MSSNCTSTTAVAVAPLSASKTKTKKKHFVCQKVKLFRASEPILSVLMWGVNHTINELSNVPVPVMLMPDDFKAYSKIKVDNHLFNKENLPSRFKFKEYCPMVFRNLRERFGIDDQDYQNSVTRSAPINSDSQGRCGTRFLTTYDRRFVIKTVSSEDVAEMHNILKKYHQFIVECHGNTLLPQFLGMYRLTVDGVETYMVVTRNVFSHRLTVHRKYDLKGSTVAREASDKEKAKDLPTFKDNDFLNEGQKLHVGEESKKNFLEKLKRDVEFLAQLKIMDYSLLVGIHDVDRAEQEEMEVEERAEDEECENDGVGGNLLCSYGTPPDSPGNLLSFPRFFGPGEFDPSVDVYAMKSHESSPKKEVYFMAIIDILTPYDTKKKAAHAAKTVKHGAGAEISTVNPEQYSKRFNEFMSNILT
Outline: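 Transcreener FI fluorescence read-out of GDP formed by E. coli-expressed GST-PIP4K2B (5 nM) using 100 uM GTP and 80 uM PI5P with DOPE carrier lipid, pH 7.3, 2 h reaction. Compounds (up to 4.8 uM) were preincubated with enzyme 1 h at 27 C; IC50 fitted from residual activity relative to no-inhibitor control.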

IC50 (PIP4K 2A [1]) [nM] | IC50 (PIP4K 2A [2]) [nM] | IC50 (PIP4K2B) [nM] | Compound
1 to 10 | 10 to 100 | 100 to 1000 | CC1Oc2cc(N3CCCC3=O)ccc2-c2cnc(Nc3cnc4scnc4c3)cc21 (centres unmarked) [Example 65, 1-(5-methyl-3-(thiazolo[5,4-b]pyridin-6-ylamino)-5H-chromeno[4,3-c]pyridin-8-yl)pyrrolidin-2-one]
1 to 10 | 10 to 100 | 100 to 1000 | CC1Oc2cc(N3CCCC3=O)ccc2-c2cnc(Nc3cccnn3)cc21 (centres unmarked) [Example 128, 1-(5-methyl-3-(pyridazin-3-ylamino)-5H-chromeno[4,3-c]pyridin-8-yl)pyrrolidin-2-one]
100 to 1000 | > 1000 | > 1000 | O=C1CCCN1c1ccc2c(c1)OCc1c(-c3ccncc3)cncc1-2 [Example 202, 1-(4-(pyridin-4-yl)-5H-chromeno[4,3-c]pyridin-8-yl)pyrrolidin-2-one]
1 to 10 | 1 to 10 | 100 to 1000 | CC1Oc2cc(N3CCCC3=O)ccc2-c2cnc(Nc3cncc(N(C)S(C)(=O)=O)c3)cc21 (centres unmarked) [Example 48, N-methyl-N-(5-((5-methyl-8-(2-oxopyrrolidin-1-yl)-5H-chromeno[4,3-c]pyridin-3-yl)amino)pyridin-3-yl)methanesulfonamide]
≤ 1 | 1 to 10 | 10 to 100 | CC1Oc2cc(N3CCCC3=O)ccc2-c2cnc(Nc3cncc(Nc4cccnn4)c3)cc21 (centres unmarked) [Example 131, 1-(5-methyl-3-((5-(pyridazin-3-ylamino)pyridin-3-yl)amino)-5H-chromeno[4,3-c]pyridin-8-yl)pyrrolidin-2-one]
1 to 10 | 10 to 100 | 100 to 1000 | COc1ncc(Nc2cc3c(cn2)-c2ccc(N4CCCC4=O)cc2OC3C)cc1N(C)S(C)(=O)=O (centres unmarked) [Example 90, N-(2-methoxy-5-((5-methyl-8-(2-oxopyrrolidin-1-yl)-5H-chromeno[4,3-c]pyridin-3-yl)amino)pyridin-3-yl)-N-methylmethanesulfonamide]
≤ 1 | ≤ 1 | 1 to 10 | CC1Oc2cc(N3CCCC3=O)c(F)cc2-c2cnc(Nc3cnc4c(c3)N3C(=O)CC[C@H]3CO4)cc21 (stereo partly drawn) [Example 47, (6aS)-2-((9-fluoro-5-methyl-8-(2-oxopyrrolidin-1-yl)-5H-chromeno[4,3-c]pyridin-3-yl)amino)-6,6a,7,8-tetrahydro-9H-pyrido[2,3-b]pyrrolo[1,2-d][1,4]oxazin-9-one]
≤ 1 | ≤ 1 | 1 to 10 | CC1Oc2cc(N3CCCC3=O)ccc2-c2cnc(Nc3cnc4c(c3)N(C(=O)CO)CCO4)cc21 (centres unmarked) [Example 61, 1-(3-((1-(2-hydroxyacetyl)-2,3-dihydro-1H-pyrido[2,3-b][1,4]oxazin-7-yl)amino)-5-methyl-5H-chromeno[4,3-c]pyridin-8-yl)pyrrolidin-2-one]
≤ 1 | ≤ 1 | 1 to 10 | COC(=O)N1CCOc2ncc(Nc3cc4c(cn3)-c3ccc(N5CCCC5=O)cc3OC4)cc21 [Example 77, methyl 7-((8-(2-oxopyrrolidin-1-yl)-5H-chromeno[4,3-c]pyridin-3-yl)amino)-2,3-dihydro-1H-pyrido[2,3-b][1,4]oxazine-1-carboxylate]
1 to 10 | 1 to 10 | 10 to 100 | COc1ncc(Nc2cc3c(cn2)-c2ccc(N4CCCC4=O)cc2OC3C)cc1NS(C)(=O)=O (centres unmarked) [Example 88, N-(2-methoxy-5-((5-methyl-8-(2-oxopyrrolidin-1-yl)-5H-chromeno[4,3-c]pyridin-3-yl)amino)pyridin-3-yl)methanesulfonamide]
≤ 1 | ≤ 1 | – | C[C@@H]1Oc2cc(N3CCCC3=O)ccc2-c2cnc(Nc3cnc4c(c3)N3C(=O)CC[C@H]3CO4)cc21 [Example 193, (S)-2-(((S)-5-methyl-8-(2-oxopyrrolidin-1-yl)-5H-chromeno[4,3-c]pyridin-3-yl)amino)-6,6a,7,8-tetrahydro-9H-pyrido[2,3-b]pyrrolo[1,2-d][1,4]oxazin-9-one]
≤ 1 | – | 10 to 100 | CC1Oc2cc(N3CCCC3=O)ccc2-c2cnc(Nc3cncc(C4(C#N)CC4)c3)cc21 (centres unmarked) [Example 39, 1-(5-((5-methyl-8-(2-oxopyrrolidin-1-yl)-5H-chromeno[4,3-c]pyridin-3-yl)amino)pyridin-3-yl)cyclopropane-1-carbonitrile]
≤ 1 | – | – | Cn1cnnc1-c1ccc2c(c1)OC(C)(C)c1nc(Nc3cnc4c(c3)N3C(=O)CC[C@H]3CO4)ncc1-2 [Example 210, (S)-2-((5,5-dimethyl-8-(4-methyl-4H-1,2,4-triazol-3-yl)-5H-chromeno[3,4-d]pyrimidin-3-yl)amino)-6,6a,7,8-tetrahydro-9H-pyrido[2,3-b]pyrrolo[1,2-d][1,4]oxazin-9-one]
≤ 1 | – | 1 to 10 | Cn1cnnc1-c1ccc2c(c1)OC(C)(C)c1cc(Nc3cnc4c(c3)N3C(=O)CC[C@H]3CO4)ncc1-2 [Example 211, (S)-2-((5,5-dimethyl-8-(4-methyl-4H-1,2,4-triazol-3-yl)-5H-chromeno[4,3-c]pyridin-3-yl)amino)-6,6a,7,8-tetrahydro-9H-pyrido[2,3-b]pyrrolo[1,2-d][1,4]oxazin-9-one]
10 to 100 | – | 100 to 1000 | CC1Oc2cc(N3CCCC3=O)ccc2-c2cnc(Nc3cnc4c(c3)N3[C@H](CO4)CN(C)S3(=O)=O)cc21 (stereo partly drawn) [Example 187, 1-(5-methyl-3-(((S)-2-methyl-1,1-dioxido-2,3,3a,4-tetrahydropyrido[2,3-b][1,2,5]thiadiazolo[2,3-d][1,4]oxazin-8-yl)amino)-5H-chromeno[4,3-c]pyridin-8-yl)pyrrolidin-2-one]
≤ 1 | – | 1 to 10 | Cc1conc1-c1ccc2c(c1)OC(C)(C)c1cc(Nc3cnc4c(c3)N3C(=O)CC[C@H]3CO4)ncc1-2 [Example 209, (S)-2-((5,5-dimethyl-8-(4-methylisoxazol-3-yl)-5H-chromeno[4,3-c]pyridin-3-yl)amino)-6,6a,7,8-tetrahydro-9H-pyrido[2,3-b]pyrrolo[1,2-d][1,4]oxazin-9-one]
